Here are results for one molecule from ChEMBL document CHEMBL5042526, “Design, Synthesis, and Biological Evaluation of Triazolone Derivatives as Potent PPARα/δ Dual Agonists for the Treatment of Nonalcoholic Steatohepatitis” (J Med Chem, 2022).

Structures are written as SMILES. Activity calls are given as the source filed them. No cut-off for these calls is given here.

For data set [1], the system named is Mus musculus. Description: In vivo agonist activity at PPARalpha/delta assessed as upregulation of Fads2 mRNA expression in C57BL/6Nifdc mouse liver at 10 mg/kg, po for 4 days. The format is functional, organism-based. The following applies: time 4.0 day.
Data set [2] relates to Mus musculus. Description: Anti-fibrosis effect in CCl4 induced liver fibrosis C57BL/6JNifdc mouse model assessed as downregulation of alpha-SMA expression at 3 to 30 mg/kg, po after 20 hrs by Western blot analysis. In kind it is functional, organism-based. The following applies: dose 3-30 mg/kg. On the technique in general: In western blotting, separated proteins are transferred to a membrane and probed.

In data set [3] the test system is Mus musculus. The data set is described as follows: In vivo agonist activity against PPARalpha/delta assessed as upregulation of Nfkbia-mRNA expression in C57BL/6Nifdc mouse skeletal muscle at 10 mg/kg, po for 4 days. Particulars: time 4.0 day. In kind it is functional, organism-based.
In data set [4] the test system is Mus musculus. The data set is described as follows: In vivo agonist activity against PPARalpha/delta assessed as upregulation of -Mlycd mRNA expression in C57BL/6Nifdc mouse skeletal muscle at 10 mg/kg, po for 4 days. In kind it is functional, organism-based. The following applies: time 4.0 day.
Data set [5] concerns Mus musculus. The data set is described as follows: In vivo agonist activity against PPARalpha/delta assessed as upregulation of Ucp3 mRNA expression in C57BL/6Nifdc mouse skeletal muscle at 10 mg/kg, po for 4 days. Particulars: time 4.0 day. In kind it is functional, organism-based.
Data set [6] concerns Mus musculus. Description: Anti-inflammatory activity in HF-CDAA-induced nonalcoholic steatohepatitis C57BL/6JNifdc mouse model assessed as decrease in Ccl4 mRNA expression at 10 mg/kg, po. The format is functional, organism-based.
Data set [7] deals with Mus musculus. The data set is described as follows: Anti-fibrosis effect in HF-CDAA-induced nonalcoholic steatohepatitis C57BL/6JNifdc mouse model assessed as expression of Acta2 marker at 10 mg/kg, po after 20 hrs by Western blot analysis. The format is functional, organism-based.
Data set [8] addresses Voltage-gated inwardly rectifying potassium channel KCNH2 (Homo sapiens, UniProt Q12809). The data set is described as follows: Inhibition of hERG potassium channel in HEK293 cells upto 30 uM by whole-cell patch clamp assay. The format is toxicity, cell-based. Background: Block of hERG is tested as a sign of cardiac risk.
Data set [9] has as its system Mus musculus. The data set is described as follows: In vivo agonist activity against PPARalpha/delta assessed as upregulation of Ugt1a9 mRNA expression in C57BL/6Nifdc mouse liver at 10 mg/kg, po for 4 days. The format is functional, organism-based. The following applies: time 4.0 day.
Data set [10] relates to Mus musculus. The data set is described as follows: In vivo agonist activity against PPARalpha/delta assessed as upregulation of Acs15 mRNA expression in C57BL/6Nifdc mouse liver at 10 mg/kg, po for 4 days. The format is functional, organism-based. The following applies: time 4.0 day.
The subject of data set [11] is Mus musculus. The data set is described as follows: In vivo agonist activity against PPARalpha/delta assessed as upregulation of Vnn1 mRNA expression in C57BL/6Nifdc mouse liver at 10 mg/kg, po for 4 days. In kind it is functional, organism-based. Particulars: time 4.0 day.
The test system of a further data set is HepG2. Description: Agonist activity against PPARalpha/delta (unknown origin) assessed as upregulation of PDK4 mRNA expression in human HepG2 cells at 8 nM incubated for 12 hrs by RT-PCR analysis. In kind it is cell-based. The following applies: filed as agonist.
The test system of data set [12] is Mus musculus. Description: In vivo agonist activity against PPARalpha/delta assessed as upregulation of Pdk4 mRNA expression in C57BL/6Nifdc mouse liver at 10 mg/kg, po for 4 days. In kind it is functional, organism-based. The following applies: time 4.0 day.
The test system of data set [13] is Mus musculus. The data set is described as follows: In vivo agonist activity against PPARalpha/delta assessed as upregulation of Mat2a mRNA expression in C57BL/6Nifdc mouse liver at 10 mg/kg, po for 4 days. The format is functional, organism-based. The following applies: time 4.0 day.
In the next data set the test system is COS7. The data set is described as follows: Agonist activity at human FXR (193 to 486 residues) in Cos7 cells transfected with LBD-Gal4 and pGL435 Gal4 UAS Luc reporter plasmid at 10 uM by reporter gene assay. The format is cell-based. For orientation: In a reporter assay the amount or activity of a reporter protein is the signal.
Data set [14] relates to Mus musculus. Description: Anti-inflammatory activity in HF-CDAA-induced nonalcoholic steatohepatitis C57BL/6JNifdc mouse model assessed as decrease in Adgre1 mRNA expression at 10 mg/kg, po. In kind it is functional, organism-based.
In data set [15] the test system is Mus musculus. Description: In vivo agonist activity against PPARalpha/delta assessed as upregulation of Angptl4 mRNA expression in C57BL/6Nifdc mouse skeletal muscle at 10 mg/kg, po for 4 days. The format is functional, organism-based. Particulars: time 4.0 day.
Data set [16] concerns Mus musculus. The data set is described as follows: In vivo agonist activity against PPARalpha/delta assessed as upregulation of Pdk4 mRNA expression in C57BL/6Nifdc mouse skeletal muscle at 10 mg/kg, po for 4 days. In kind it is functional, organism-based. The following applies: time 4.0 day.
The subject of data set [17] is Mus musculus. Description: Anti-fibrosis effect in HF-CDAA-induced nonalcoholic steatohepatitis C57BL/6JNifdc mouse model assessed as expression of Col1a1 marker at 10 mg/kg, po after 20 hrs by Western blot analysis. In kind it is functional, organism-based.
Data set [18] relates to Mus musculus. Description: In vivo agonist activity against PPARalpha/delta assessed as upregulation of Acot1 mRNA expression in C57BL/6Nifdc mouse skeletal muscle at 10 mg/kg, po for 4 days. The format is functional, organism-based. Particulars: time 4.0 day.

Sequence of Voltage-gated inwardly rectifying potassium channel KCNH2 (Q12809 whole entry): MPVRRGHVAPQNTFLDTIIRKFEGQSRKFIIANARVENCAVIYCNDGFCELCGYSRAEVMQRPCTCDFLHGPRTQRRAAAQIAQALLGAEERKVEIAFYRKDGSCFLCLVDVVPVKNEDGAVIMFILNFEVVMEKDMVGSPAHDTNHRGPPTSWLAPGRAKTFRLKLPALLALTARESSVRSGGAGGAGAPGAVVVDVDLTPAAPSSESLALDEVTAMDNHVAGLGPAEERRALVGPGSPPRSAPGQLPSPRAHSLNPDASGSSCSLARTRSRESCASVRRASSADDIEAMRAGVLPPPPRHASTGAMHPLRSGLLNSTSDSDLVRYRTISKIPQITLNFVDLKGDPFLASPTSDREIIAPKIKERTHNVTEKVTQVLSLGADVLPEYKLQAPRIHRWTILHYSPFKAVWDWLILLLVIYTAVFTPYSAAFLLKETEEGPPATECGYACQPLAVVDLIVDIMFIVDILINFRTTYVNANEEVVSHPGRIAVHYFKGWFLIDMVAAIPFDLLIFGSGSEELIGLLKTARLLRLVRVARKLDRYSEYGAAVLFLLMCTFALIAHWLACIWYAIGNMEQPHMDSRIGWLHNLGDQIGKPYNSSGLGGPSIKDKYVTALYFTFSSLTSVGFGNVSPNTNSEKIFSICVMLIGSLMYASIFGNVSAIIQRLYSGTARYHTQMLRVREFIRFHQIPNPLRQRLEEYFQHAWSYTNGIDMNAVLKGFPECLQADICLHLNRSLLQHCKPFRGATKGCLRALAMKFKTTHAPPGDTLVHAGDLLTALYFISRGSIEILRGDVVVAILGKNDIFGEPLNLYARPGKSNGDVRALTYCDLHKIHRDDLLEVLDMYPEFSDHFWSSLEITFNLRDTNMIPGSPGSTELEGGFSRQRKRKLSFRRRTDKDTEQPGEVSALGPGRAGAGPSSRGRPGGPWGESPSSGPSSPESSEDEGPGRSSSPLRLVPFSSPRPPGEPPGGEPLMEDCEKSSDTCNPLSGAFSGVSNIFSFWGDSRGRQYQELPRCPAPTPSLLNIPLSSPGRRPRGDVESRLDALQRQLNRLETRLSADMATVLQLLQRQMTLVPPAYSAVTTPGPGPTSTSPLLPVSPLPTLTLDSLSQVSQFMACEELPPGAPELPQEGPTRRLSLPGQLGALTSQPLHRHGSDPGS

`Cc1cc(Cn2ncn(-c3ccc(OC(F)(F)F)cc3)c2=O)cc(C)c1OC(C)(C)C(=O)O`: the outcome in the data set with Mus musculus [1], in the data set with Mus musculus [2], in the data set on Mus musculus [3], in the data set on Mus musculus [4], in the data set with Mus musculus [5] and with Mus musculus [6] was Active. Moreover, the outcome with Mus musculus [7], in the data set on Mus musculus [9], in the data set with Mus musculus [10], with Mus musculus [11], with HepG2 and in the data set with Mus musculus [12] was Active. The outcome in the data set on Mus musculus [13], with Mus musculus [14], in the data set on Mus musculus [15], with Mus musculus [16], in the data set on Mus musculus [17] and in the data set with Mus musculus [18] was Active. In data set [8], the “inhibition (INH)” value was “Active”. The outcome in the data set with COS7 was inactive.
